Test results: PMC11775380, “Discovery of Novel Nav1.7-Selective Inhibitors with the 1H-Indole-3-Propionamide Scaffold for Effective Pain Relief” (Research, 2025)

Columns and labels:
Format in all cases: cell-based
[1] = biological target: T1, Nav1.7 Y1548A/V1552A/M1593A (Homo sapiens, UniProt Q15858, M1593A/V1552A/Y1548A); experiment: Multiple site-directed mutagenesis, inhibition by patch clamp; details: 1 μM
T1 construct: expressed in transfected cells; host or cells: HEK293T
Text: (§1) To further investigate the roles of these residues in WN2-R binding, 3 combinations of double or triple site-directed mutagenesis were introduced, including Y1548A/F1609A (to investigate the function of phenyl ring-containing residues surrounding WN2-R, Fig. 4E), E1545A/E1600A (to examine the importance of negatively charged residues at the binding site entrance, Fig. 4F), and Y1548A/V1552A/M1593A (to understand the role of the outer hydrophobic wall formed by these residues in ligand binding, Fig. 4G).
(§2) Whole-cell patch-clamp recordings were conducted at 25 ± 2 °C, utilizing an EPC 10USB patch-clamp amplifier (HEKA Elektronik, Lambrecht, Germany). Pipettes, with access resistance between 2.0 and 3.0 MΩ, were pulled from borosilicate glass capillary tubes using a 2-step vertical microelectrode puller (PC-10, Narishige Group, Tokyo, Japan). Voltage-clamp recordings were obtained with PatchMaster software v2 × 73 (HEKA Elektronik) 5 min after establishing whole-cell configuration, sampled at 20 kHz, and filtered at 5 kHz. To minimize voltage errors, 80% series resistance compensation was applied. Pipettes were filled with 140 mM CsF, 10 mM NaCl, 1 mM EGTA, and 10 mM HEPES (pH=7.4, adjusted with CsOH). The external solution contained 140 mM NaCl, 2 mM CaCl2, 1 mM MgCl2, 5 mM KCl, 10 mM HEPES, and 10 mM glucose (pH=7.4, adjusted with NaOH). IC50 values were determined in HEK293T or ND7/23 cell lines by voltage clamping at −80 mV, followed by stepping to the V1/2 of inactivation for 8 s to facilitate compound binding.

Nav1.7 E1545A/E1600A = biological target: T2, Nav1.7 E1545A/E1600A (Homo sapiens, UniProt Q15858, E1545A/E1600A); experiment: as above; details: 1 μM
T2 construct: expressed in transfected cells; host or cells: HEK293T
Text: as §1, §2

Nav1.7 Y1548A/F1609A = biological target: T3, Nav1.7 Y1548A/F1609A (Homo sapiens, UniProt Q15858, F1609A/Y1548A); experiment: as above; details: 1 μM
T3 construct: expressed in transfected cells; host or cells: HEK293T
Text: as §1, §2

[2] = tested on: native Ca2+ current (Cav channels) in DRG neurons; experiment: Voltage-clamp recording of native Ca2+ current in DRG neurons; details: 10 μM; mouse DRG neurons
Protocol: To investigate the mechanism of action of WN2-R and facilitate animal model experiments, we used voltage-clamp recording to test the effects of WN2-R on the native Na^+-, K^+-, and Ca^2+-mediated currents in DRG neurons. […] Furthermore, the effects of WN2-R on membrane excitability were examined in small (<30 μm) DRG neurons from mice using current-clamp recordings.
DRG isolation and culture were performed according to our previous report. Briefly, C57BL/6 mice (weight 18 to 20 g, 6 to 8 weeks) were euthanized via cervical dislocation under anesthesia. Lumbar DRGs were isolated from the L4 to L5 segments of the lumbar spinal cord. The DRG neurons were subsequently dissociated through enzymatic digestion with collagenase (0.32 mg/ml) and trypsin (0.15 mg/ml) at 37 °C for 30 min, with intermittent shaking. After centrifugation at 800 rpm for 5 min at room temperature, the cells were seeded onto poly-L-lysine-coated coverslips and cultured in DMEM (Gibco) supplemented with 10% fetal bovine serum (Gibco). […]
For recording Nav currents of DRG neurons, the bath solution contains (in mM) 30 NaCl, 1 MgCl2, 1.8 CaCl2, 5 CsCl, 5 KCl, 25 D-glucose, 5 HEPES, 0.1 CdCl2, and TEA-Cl (pH 7.4 with NaOH), and the pipette solution contains (in mM) 135 CsCl, 10 NaCl, and 5 HEPES (pH 7.4 with CsOH). The Nav current program is recorded following the above method. […]

T1 sequence (Q15858 whole entry Y1548A/V1552A/M1593A): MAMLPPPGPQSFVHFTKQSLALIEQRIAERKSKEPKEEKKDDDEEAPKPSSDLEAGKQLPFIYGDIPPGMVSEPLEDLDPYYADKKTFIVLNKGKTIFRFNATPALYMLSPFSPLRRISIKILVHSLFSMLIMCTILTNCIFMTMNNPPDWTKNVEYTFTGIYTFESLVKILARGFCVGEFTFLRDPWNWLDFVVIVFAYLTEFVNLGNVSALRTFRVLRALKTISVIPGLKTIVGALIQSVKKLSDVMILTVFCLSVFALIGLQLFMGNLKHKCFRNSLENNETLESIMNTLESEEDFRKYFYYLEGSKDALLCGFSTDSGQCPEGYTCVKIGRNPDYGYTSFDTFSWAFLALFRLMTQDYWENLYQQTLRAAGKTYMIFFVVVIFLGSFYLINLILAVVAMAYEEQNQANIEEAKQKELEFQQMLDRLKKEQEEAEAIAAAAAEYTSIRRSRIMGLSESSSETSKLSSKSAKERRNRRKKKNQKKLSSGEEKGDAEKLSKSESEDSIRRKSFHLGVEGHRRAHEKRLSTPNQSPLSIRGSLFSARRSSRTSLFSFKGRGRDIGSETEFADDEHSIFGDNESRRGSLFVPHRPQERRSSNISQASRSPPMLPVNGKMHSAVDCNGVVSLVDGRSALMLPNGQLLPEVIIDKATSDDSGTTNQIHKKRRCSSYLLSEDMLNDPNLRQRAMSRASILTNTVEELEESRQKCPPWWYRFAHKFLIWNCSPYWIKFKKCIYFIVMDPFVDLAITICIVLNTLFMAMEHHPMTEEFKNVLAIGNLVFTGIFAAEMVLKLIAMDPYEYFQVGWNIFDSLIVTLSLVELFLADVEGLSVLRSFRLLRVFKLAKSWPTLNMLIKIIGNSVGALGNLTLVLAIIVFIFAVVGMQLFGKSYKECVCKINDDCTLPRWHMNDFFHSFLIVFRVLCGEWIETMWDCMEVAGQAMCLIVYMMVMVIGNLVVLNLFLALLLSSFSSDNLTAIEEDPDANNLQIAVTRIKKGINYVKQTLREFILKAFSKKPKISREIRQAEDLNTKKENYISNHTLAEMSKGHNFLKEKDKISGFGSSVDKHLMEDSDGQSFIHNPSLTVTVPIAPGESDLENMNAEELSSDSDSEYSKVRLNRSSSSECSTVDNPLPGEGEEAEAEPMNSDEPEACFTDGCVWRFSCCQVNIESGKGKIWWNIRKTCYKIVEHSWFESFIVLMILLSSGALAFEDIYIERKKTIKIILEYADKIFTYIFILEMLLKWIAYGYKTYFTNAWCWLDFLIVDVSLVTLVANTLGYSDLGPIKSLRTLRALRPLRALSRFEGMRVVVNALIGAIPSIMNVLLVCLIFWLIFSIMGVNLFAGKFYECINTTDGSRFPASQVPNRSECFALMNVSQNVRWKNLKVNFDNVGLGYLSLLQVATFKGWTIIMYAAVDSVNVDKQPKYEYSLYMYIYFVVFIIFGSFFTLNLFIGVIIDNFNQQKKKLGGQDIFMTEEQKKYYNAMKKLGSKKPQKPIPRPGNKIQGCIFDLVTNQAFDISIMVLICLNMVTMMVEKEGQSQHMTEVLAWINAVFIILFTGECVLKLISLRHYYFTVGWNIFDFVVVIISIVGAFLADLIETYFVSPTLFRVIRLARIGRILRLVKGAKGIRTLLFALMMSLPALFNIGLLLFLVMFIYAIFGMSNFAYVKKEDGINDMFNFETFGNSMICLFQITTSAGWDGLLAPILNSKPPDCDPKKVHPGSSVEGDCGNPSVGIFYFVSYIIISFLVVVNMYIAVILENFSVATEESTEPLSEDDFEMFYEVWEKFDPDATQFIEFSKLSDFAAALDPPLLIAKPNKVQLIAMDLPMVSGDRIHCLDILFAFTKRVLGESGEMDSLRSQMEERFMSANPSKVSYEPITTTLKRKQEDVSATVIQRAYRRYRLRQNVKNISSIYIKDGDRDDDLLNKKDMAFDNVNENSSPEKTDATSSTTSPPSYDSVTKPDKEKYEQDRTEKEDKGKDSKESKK
T1 sequence (Q07699 19-218 partner): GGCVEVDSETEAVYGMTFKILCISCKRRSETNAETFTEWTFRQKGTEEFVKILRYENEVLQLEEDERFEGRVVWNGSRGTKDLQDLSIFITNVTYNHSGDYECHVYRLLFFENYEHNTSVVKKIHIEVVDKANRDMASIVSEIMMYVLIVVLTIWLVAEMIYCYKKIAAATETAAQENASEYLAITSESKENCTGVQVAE
T1 sequence (O60939 30-215 partner): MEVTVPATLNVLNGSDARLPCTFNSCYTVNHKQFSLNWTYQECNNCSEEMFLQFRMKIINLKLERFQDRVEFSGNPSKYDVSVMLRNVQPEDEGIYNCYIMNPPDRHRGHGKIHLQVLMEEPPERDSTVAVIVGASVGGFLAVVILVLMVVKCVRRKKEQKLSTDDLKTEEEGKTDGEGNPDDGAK
T2 sequence (Q15858 whole entry E1545A/E1600A): as the sequence (Q15858 whole entry Y1548A/V1552A/M1593A) above, with E1545A, A1548Y, A1552V, A1593M, E1600A counted along it
T2 sequence (Q07699 19-218 partner): as the sequence (Q07699 19-218 partner) above
T2 sequence (O60939 30-215 partner): as the sequence (O60939 30-215 partner) above
T3 sequence (Q15858 whole entry Y1548A/F1609A): as the sequence (Q15858 whole entry Y1548A/V1552A/M1593A) above, with A1552V, A1593M, F1609A counted along it
T3 sequence (Q07699 19-218 partner): as the sequence (Q07699 19-218 partner) above
T3 sequence (O60939 30-215 partner): as the sequence (O60939 30-215 partner) above

Cc1ccc(Cn2cc([C@H](CC(=O)NCCN(C)C)c3ccc(F)cc3)c3ccccc32)cc1 [WN2-R]
Effect of the mutation on antagonistic activity [1]: minimal effects
Effect of the mutation on antagonistic activity (Nav1.7 E1545A/E1600A): inhibitory effect on WN2-R activity
Effect of the mutation on antagonistic activity (Nav1.7 Y1548A/F1609A): minimal effects
Effect on native Ca2+ current [2]: almost no effect
